Measured values taken from patent publication US10221163B2 (priority 2015, dated 2019).
Like-named read-outs stand apart in the source and are kept apart here.

Key:
[1] = target: IMP-1 (Serratia marcescens, UniProt P52699); experiment: biochemical; assay type: biochemical; details: fluorescence assay, CCF2-FA substrate, 2 pM enzyme, 2 hours at 25° C.; read-out: IMP-1 IC50
Outline: (§1)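 Semi-log dose-response curves, fitted with a 4-parameter model, gave IC50s. The underlying signal was CCF2-FA fluorescence following 2 hours at 25° C with enzyme, substrate and inhibitor combined.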

[2] = target: NDM-1 (Klebsiella pneumoniae, UniProt C7C422); experiment: biochemical; assay type: biochemical; details: CCF2-FA substrate, 1 pM enzyme, 2 hours at 25° C.
Outline: as §1

[3] = target: VIM-1 (Pseudomonas aeruginosa (strain ATCC 15692 / DSM 22644 / CIP 104116 / JCM 14847 / LMG 12228 / 1C / PRS 101 / PAO1), UniProt A0A0F7KYQ8); experiment: biochemical; details: CCF2-FA substrate, 30 pM enzyme, 2 hours at 25° C.
Outline: as §1

[4] = test system: Escherichia coli expressing NDM-1 (CLB30005, CLB30016); assay type: cell-based; details: with imipenem 1 μg/ml; 95% inhibition of bacterial growth
Outline: (§2)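 Clinical isolates (E. coli NDM-1, S. marcescens IMP-1, K. pneumoniae VIM-1) were diluted 1:100 from saline suspension into 1.1×CAMHB and exposed to test compound with imipenem at 1 μg/ml. Plates were incubated at 35° C for 22 hours to 24 hours, and growth was read by absorbance.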

[5] = test system: Klebsiella pneumoniae expressing VIM-1 (IHMA599644); assay type: cell-based; details: with imipenem 1 μg/ml; 95% inhibition of bacterial growth
Outline: as §2

[6] = test system: Serratia marcescens expressing IMP-1 (CL5741); assay type: cell-based; details: with imipenem 1 μg/ml; 95% inhibition of bacterial growth
Outline: as §2

[7] = test system: Pseudomonas aeruginosa efflux+ (MB9798), IMP-1; assay type: cell-based; details: concentration restoring susceptibility to imipenem at 2 μg/mL in the presence of a class A, C, D serine β-lactamase inhibitor closely related to relebactam
Outline: (§3)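 PAO1 pair, broth microdilution; fixed β-lactam (imipenem/ceftazidime) at ~CLSI breakpoint + fixed class A/C BLI for AmpC; serial MBLi titration; endpoint = MBLi conc. restoring susceptibility; MB9798:MB9799 ratio = efflux liability.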

[8] = test system: Pseudomonas aeruginosa efflux− (MB9799), IMP-1; assay type: cell-based; details: concentration restoring susceptibility to imipenem at 2 μg/mL in the presence of a class A, C, D serine β-lactamase inhibitor closely related to relebactam
Outline: as §3

[9] = test system: Pseudomonas aeruginosa MB9798 vs MB9799; details: ratio MITC95 PA_9798/MITC95 PA_9799
Outline: as §3

[10] = fluorescence assay, read-out: NDM-1 IC50
[11] = fluorescence assay, read-out: VIM-1 IC50

NDM-1, sequence (C7C422 whole entry, looked up, species assumed): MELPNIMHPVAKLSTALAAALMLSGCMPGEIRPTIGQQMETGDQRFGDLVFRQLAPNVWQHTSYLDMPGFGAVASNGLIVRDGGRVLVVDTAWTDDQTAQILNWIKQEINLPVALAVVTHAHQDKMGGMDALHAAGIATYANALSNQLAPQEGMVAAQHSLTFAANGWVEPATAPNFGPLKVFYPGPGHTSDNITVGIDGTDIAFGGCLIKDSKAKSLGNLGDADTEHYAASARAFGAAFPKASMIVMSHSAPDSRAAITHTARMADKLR
IMP-1, sequence (P52699 whole entry, looked up, species assumed): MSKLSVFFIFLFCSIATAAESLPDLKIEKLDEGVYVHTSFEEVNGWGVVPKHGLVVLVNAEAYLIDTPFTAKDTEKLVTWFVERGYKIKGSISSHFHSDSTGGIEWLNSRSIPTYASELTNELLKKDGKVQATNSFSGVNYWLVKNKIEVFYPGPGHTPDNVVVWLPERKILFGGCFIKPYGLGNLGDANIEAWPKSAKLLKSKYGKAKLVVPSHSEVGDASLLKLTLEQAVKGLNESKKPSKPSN

| SMILES | IC50 [1] [nM] | IC50 [2, 10] [nM] | IC50 [3, 11] [nM] | Escherichia coli expressing NDM-1 (CLB30016) MITC95 [4] [µM] | Klebsiella pneumoniae expressing VIM-1 (IHMA599644) MITC95 [5] [µM] | Serratia marcescens expressing IMP-1 (CL5741) MITC95 [6] [µM] | P. aeruginosa expressing IMP-1, efflux + (MB9798) MITC95 [7] [µM] | P. aeruginosa expressing IMP-1, efflux − (MB9799) MITC95 [8] [µM] | Efflux ratio [9] | IC50 ([3]; VIM-1 IC50, fluorescence assay) [nM] | IC50 ([2]; NDM-1 IC50, fluorescence assay) [nM] |
| --- | --- | --- | --- | --- | --- | --- | --- | --- | --- | --- | --- |
| NCC1CCCCN1S(=O)(=O)c1ccc(-c2cccc3sc(N)nc23)c(-c2nnn[nH]2)c1S(N)(=O)=O.O=C(O)C(F)(F)F (stereo not drawn) [Example 110, (1-((4-(2-aminobenzo[d]thiazol-4-yl)-2-sulfamoyl-3-(1H-tetrazol-5-yl)phenyl)sulfonyl)piperidin-2-yl)methanaminium 2,2,2-trifluoroacetate] | 0.346 | 0.0815 | 0.309 | 1.563 | 3.125 | 3.125 | 1.563 | 1.563 | 1.00 |  |  |
| Nc1nc2c(-c3ccc(S(=O)(=O)NC4C5CNCC54)c(S(N)(=O)=O)c3-c3nnn[nH]3)cccc2s1.O=C(O)C(F)(F)F (stereo not drawn) [Example 111, 6-(4-(2-aminobenzo[d]thiazol-4-yl)-2-sulfamoyl-3-(1H-tetrazol-5-yl)phenylsulfonamido)-3-azabicyclo[3.1.0]hexan-3-ium 2,2,2-trifluoroacetate] | 0.429 | 0.0746 | 0.298 | 1.563 | 3.125 | 1.563 | 0.7813 | 1.563 | 0.50 |  |  |
| Nc1nc2c(-c3ccc(S(=O)(=O)NCC4CNCCO4)c(S(N)(=O)=O)c3-c3nnn[nH]3)cccc2s1.O=C(O)C(F)(F)F (stereo not drawn) [Example 112, 2-((4-(2-aminobenzo[d]thiazol-4-yl)-2-sulfamoyl-3-(1H-tetrazol-5-yl)phenylsulfonamido)methyl)morpholin-4-ium 2,2,2-trifluoroacetate] | 0.318 | 0.046 |  | 1.563 | 3.125 | 1.563 | 1.563 | 1.563 | 1.00 | 0.219 |  |
| Nc1nc2c(-c3ccc(S(=O)(=O)NCC4(N)CCOCC4)c(S(N)(=O)=O)c3-c3nnn[nH]3)cccc2s1.O=CO [Example 115, 4-((4-(2-aminobenzo[d]thiazol-4-yl)-2-sulfamoyl-3-(1H-tetrazol-5-yl)phenylsulfonamido)methyl)tetrahydro-2H-pyran-4-aminium formate] | 0.324 | 0.0602 | 0.388 | 3.125 | 6.25 | 3.125 | 3.125 | 3.125 | 1.00 |  |  |
| CC(CN)NS(=O)(=O)c1ccc(-c2cccc3sc(N)nc23)c(-c2nnn[nH]2)c1S(N)(=O)=O.O=CO (stereo not drawn) [Example 116, 2-(4-(2-aminobenzo[d]thiazol-4-yl)-2-sulfamoyl-3-(1H-tetrazol-5-yl)phenylsulfonamido)propan-1-aminium formate] | 0.267 | 0.0239 |  | 1.563 | 3.125 | 1.563 | 0.7813 | 1.563 | 0.50 | 0.265 |  |
| Nc1nc2c(-c3ccc(S(=O)(=O)NCC4CCNC4)c(S(N)(=O)=O)c3-c3nnn[nH]3)cccc2s1.O=CO (stereo not drawn) [Example 120, 3-((4-(2-aminobenzo[d]thiazol-4-yl)-2-sulfamoyl-3-(1H-tetrazol-5-yl)phenylsulfonamido)methyl)pyrrolidin-1-ium formate] | 0.258 | 0.0495 |  | 1.563 | 3.125 | 1.563 | 0.7813 | 1.563 | 0.50 | 0.202 |  |
| CN(C[C@@H]1CCCN1)S(=O)(=O)c1ccc(-c2cccc3sc(N)nc23)c(-c2nnn[nH]2)c1S(N)(=O)=O.O=CO [Example 121, (S)-2-((4-(2-aminobenzo[d]thiazol-4-yl)-N-methyl-2-sulfamoyl-3-(1H-tetrazol-5-yl)phenylsulfonamido)methyl)pyrrolidin-1-ium formate] | 2.84 | 1.42 | 7.08 | 6.25 | 12.5 | 3.125 | 12.5 | 3.125 | 4.00 |  |  |
| Nc1nc2c(-c3ccc(S(=O)(=O)NCCC(N)CF)c(S(N)(=O)=O)c3-c3nnn[nH]3)cccc2s1.O=CO (stereo not drawn) [Example 123, 4-(4-(2-aminobenzo[d]thiazol-4-yl)-2-sulfamoyl-3-(1H-tetrazol-5-yl)phenylsulfonamido)-1-fluorobutan-2-aminium formate] | 0.219 | 0.036 |  | 1.563 | 3.125 | 1.563 | 1.563 | 1.563 | 1.00 | 0.189 |  |
| Nc1nc2c(-c3ccc(S(=O)(=O)NCCC(N)C(F)F)c(S(N)(=O)=O)c3-c3nnn[nH]3)cccc2s1.O=CO (stereo not drawn) [Example 124, 4-(4-(2-aminobenzo[d]thiazol-4-yl)-2-sulfamoyl-3-(1H-tetrazol-5-yl)phenylsulfonamido)-1,1-difluorobutan-2-aminium formate] | 0.222 |  |  | 12.5 | 12.5 | 3.125 | 12.5 | 3.125 | 4.00 | 0.254 | 0.00652 |
| C[C@H](N)CNS(=O)(=O)c1ccc(-c2cccc3sc(N)nc23)c(-c2nnn[nH]2)c1S(N)(=O)=O.O=CO [Example 127, (S)-4-(2-aminobenzo[d]thiazol-4-yl)-N1-(2-aminopropyl)-3-(1H-tetrazol-5-yl)benzene-1,2-disulfonamide, formate salt] | 0.322 | 0.0421 |  | 3.125 | 3.125 | 1.563 | 1.563 | 1.563 | 1.00 | 0.236 |  |
| COC(=O)[C@H]1C[C@@H](NS(=O)(=O)c2ccc(-c3cccc4sc(N)nc34)c(-c3nnn[nH]3)c2S(N)(=O)=O)CN1 [Example 128, Methyl (2R,4R)-4-((4-(2-aminobenzo[d]thiazol-4-yl)-2-sulfamoyl-3-(1H-tetrazol-5-yl)phenyl)sulfonamido)pyrrolidine-2-carboxylate] | 0.177 | 0.0443 |  | 3.125 | 12.5 | 6.25 | 6.25 | 6.25 | 1.00 | 0.199 |  |
